According to ChEMBL document CHEMBL3822455, “Aryl or heteroaryl substituted aminal derivatives of HCV NS5A inhibitor MK-8742” (Bioorg Med Chem Lett, 2016):

Legend:
Format in all cases: functional, organism-based, Hepacivirus hominis
Hepatitis C virus [1] = test: Antiviral activity against HCV genotype 1a assessed as replicon RNA level measured after 3 days by real-time PCR method; conditions: subtype 1a, 72 h
Hepatitis C virus [2] = test: Antiviral activity against HCV genotype 2a assessed as replicon RNA level measured after 3 days by real-time PCR method; conditions: 72 h
Hepatitis C virus [3] = test: Antiviral activity against HCV genotype 2b assessed as replicon RNA level measured after 3 days by real-time PCR method; conditions: 72 h
Hepatitis C virus [4] = test: Antiviral activity against HCV genotype 1a harboring NS5A L31V mutant assessed as replicon RNA level measured after 3 days by real-time PCR method; conditions: subtype 1a, 72 h
Hepatitis C virus [5] = test: Antiviral activity against HCV genotype 1a harboring NS5A Y93H mutant assessed as replicon RNA level measured after 3 days by real-time PCR method; conditions: subtype 1a, 72 h
Hepatitis C virus [6] = test: Antiviral activity against HCV genotype 3a assessed as replicon RNA level measured after 3 days by real-time PCR method; conditions: 72 h
Hepatitis C virus [7] = test: Antiviral activity against HCV genotype 4a assessed as replicon RNA level measured after 3 days by real-time PCR method; conditions: 72 h
Hepatitis C virus [8] = test: Antiviral activity against HCV genotype 1b assessed as replicon RNA level measured after 3 days by real-time PCR method; conditions: 72 h

Structure (SMILES) | EC50 (Hepatitis C virus [1]) [nM] | EC50 (Hepatitis C virus [2]) [nM] | EC50 (Hepatitis C virus [3]) [nM] | EC50 (Hepatitis C virus [4]) [nM] | EC50 (Hepatitis C virus [5]) [nM] | EC50 (Hepatitis C virus [6]) [nM] | EC50 (Hepatitis C virus [7]) [nM] | EC50 (Hepatitis C virus [8]) [nM]
COC(=O)N[C@H](C(=O)N1CCC[C@H]1c1ncc(-c2ccc3c(c2)OC(c2cncnc2)n2c-3cc3cc(-c4cnc([C@@H]5CCCN5C(=O)[C@@H](NC(=O)OC)C(C)C)[nH]4)ccc32)[nH]1)C(C)C (mixture of isomers) | 0.004 | 0.02 | 10 | 10 | 12 | 0.2 | – | –
COC(=O)N[C@H](C(=O)N1CCC[C@H]1c1ncc(-c2ccc3c(c2)OC(c2ccccc2Cl)n2c-3cc3cc(-c4cnc([C@@H]5CCCN5C(=O)[C@@H](NC(=O)OC)C(C)C)[nH]4)ccc32)[nH]1)C(C)C (stereo partly specified) | 0.01 | 0.04 | – | 2 | 139 | 2 | 0.3 | 0.004
COC(=O)N[C@H](C(=O)N1CCC[C@H]1c1ncc(-c2ccc3c(c2)OC(c2cccc(OCC(C)C)c2)n2c-3cc3cc(-c4cnc([C@@H]5CCCN5C(=O)[C@@H](NC(=O)OC)C(C)C)[nH]4)ccc32)[nH]1)C(C)C (mixture of isomers) | 0.01 | – | 12 | 0.2 | 0.9 | 0.02 | – | 0.004
COC(=O)N[C@H](C(=O)N1CCC[C@H]1c1ncc(-c2ccc3c(c2)OC(c2cccc(O)c2)n2c-3cc3cc(-c4cnc([C@@H]5CCCN5C(=O)[C@@H](NC(=O)OC)C(C)C)[nH]4)ccc32)[nH]1)C(C)C (mixture of isomers) | 0.02 | 0.03 | 3 | – | 0.8 | 0.02 | 0.02 | –
COC(=O)N[C@H](C(=O)N1CCC[C@H]1c1ncc(-c2ccc3c(c2)OC(c2ccccn2)n2c-3cc3cc(-c4cnc([C@@H]5CCCN5C(=O)[C@@H](NC(=O)OC)C(C)C)[nH]4)ccc32)[nH]1)C(C)C (mixture of isomers) | 0.009 | 0.06 | 3 | – | 31 | 0.2 | 0.02 | 0.01
COC(=O)N[C@H](C(=O)N1CCC[C@H]1c1ncc(-c2ccc3c(c2)OC(c2ccc(C)cc2)n2c-3cc3cc(-c4cnc([C@@H]5CCCN5C(=O)[C@@H](NC(=O)OC)C(C)C)[nH]4)ccc32)[nH]1)C(C)C (stereo partly specified) | 0.01 | 0.01 | – | 4 | 5 | 0.5 | 0.7 | 0.006
CCCOc1cccc(C2Oc3cc(-c4cnc([C@@H]5CCCN5C(=O)[C@@H](NC(=O)OC)C(C)C)[nH]4)ccc3-c3cc4cc(-c5cnc([C@@H]6CCCN6C(=O)[C@@H](NC(=O)OC)C(C)C)[nH]5)ccc4n32)c1 (stereo partly specified) | 0.01 | – | 2 | 0.3 | 2.6 | 0.08 | – | –
COC(=O)N[C@H](C(=O)N1CCC[C@H]1c1ncc(-c2ccc3c(c2)OC(c2cccc(C#N)c2)n2c-3cc3cc(-c4cnc([C@@H]5CCCN5C(=O)[C@@H](NC(=O)OC)C(C)C)[nH]4)ccc32)[nH]1)C(C)C (mixture of isomers) | < 2 | < 2 | < 2 | – | 4 | < 2 | < 2 | < 0.2
COC(=O)N[C@H](C(=O)N1CCC[C@H]1c1ncc(-c2ccc3c(c2)OC(c2cccc(-c4ccncc4)c2)n2c-3cc3cc(-c4cnc([C@@H]5CCCN5C(=O)[C@@H](NC(=O)OC)C(C)C)[nH]4)ccc32)[nH]1)C(C)C (mixture of isomers) | 0.007 | 0.007 | 10 | 10 | 40 | 0.08 | – | –
COC(=O)N[C@H](C(=O)N1CCC[C@H]1c1ncc(-c2ccc3c(c2)OC(c2ccc(F)cc2)n2c-3cc3cc(-c4cnc([C@@H]5CCCN5C(=O)[C@@H](NC(=O)OC)C(C)C)[nH]4)ccc32)[nH]1)C(C)C (stereo partly specified) | 0.003 | 0.002 | 2 | – | 5 | 0.06 | 0.01 | 0.006
COC(=O)N[C@H](C(=O)N1CCC[C@H]1c1ncc(-c2ccc3c(c2)OC(c2cc(F)ccc2OC)n2c-3cc3cc(-c4cnc([C@@H]5CCCN5C(=O)[C@@H](NC(=O)OC)C(C)C)[nH]4)ccc32)[nH]1)C(C)C (stereo partly specified) | 0.02 | – | 1 | 1 | 48 | – | – | 0.01
COC(=O)N[C@H](C(=O)N1CCC[C@H]1c1ncc(-c2ccc3c(c2)OC(c2cccc(C)c2)n2c-3cc3cc(-c4cnc([C@@H]5CCCN5C(=O)[C@@H](NC(=O)OC)C(C)C)[nH]4)ccc32)[nH]1)C(C)C (mixture of isomers) | – | – | 2 | 0.52 | 12 | – | – | –
COC(=O)N[C@H](C(=O)N1CCC[C@H]1c1ncc(-c2ccc3c(c2)OC(c2cccc(OC4CCCCC4)c2)n2c-3cc3cc(-c4cnc([C@@H]5CCCN5C(=O)[C@@H](NC(=O)OC)C(C)C)[nH]4)ccc32)[nH]1)C(C)C (mixture of isomers) | 0.01 | – | 7 | – | 3 | – | – | 0.007
COC(=O)N[C@H](C(=O)N1CCC[C@H]1c1ncc(-c2ccc3c(c2)OC(c2ccc(C(F)(F)F)cc2)n2c-3cc3cc(-c4cnc([C@@H]5CCCN5C(=O)[C@@H](NC(=O)OC)C(C)C)[nH]4)ccc32)[nH]1)C(C)C (mixture of isomers) | 0.016 | 0.027 | – | – | 46 | 0.27 | 0.04 | 0.009
COC(=O)N[C@H](C(=O)N1CCC[C@H]1c1ncc(-c2ccc3c(c2)OC(c2cccc(-c4cn[nH]c4)c2)n2c-3cc3cc(-c4cnc([C@@H]5CCCN5C(=O)[C@@H](NC(=O)OC)C(C)C)[nH]4)ccc32)[nH]1)C(C)C (mixture of isomers) | 0.01 | 0.03 | 25 | 10 | 101 | 0.2 | – | –
COC(=O)N[C@H](C(=O)N1CCC[C@H]1c1ncc(-c2ccc3c(c2)OC(c2ccncc2)n2c-3cc3cc(-c4cnc([C@@H]5CCCN5C(=O)[C@@H](NC(=O)OC)C(C)C)[nH]4)ccc32)[nH]1)C(C)C (mixture of isomers) | 0.01 | 0.02 | – | 0.6 | 146 | 0.8 | 0.2 | 0.01
COC(=O)N[C@H](C(=O)N1CCC[C@H]1c1ncc(-c2ccc3c(c2)OC(c2cccc(OC4CCCC4)c2)n2c-3cc3cc(-c4cnc([C@@H]5CCCN5C(=O)[C@@H](NC(=O)OC)C(C)C)[nH]4)ccc32)[nH]1)C(C)C (mixture of isomers) | 0.01 | – | 6 | 0.2 | 4 | 0.03 | – | 0.006
COC(=O)N[C@H](C(=O)N1CCC[C@H]1c1ncc(-c2ccc3c(c2)OC(c2cc(F)cc(OC)c2)n2c-3cc3cc(-c4cnc([C@@H]5CCCN5C(=O)[C@@H](NC(=O)OC)C(C)C)[nH]4)ccc32)[nH]1)C(C)C (mixture of isomers) | 0.006 | – | 0.1 | 0.1 | 2.3 | – | – | 0.007
COC(=O)N[C@H](C(=O)N1CCC[C@H]1c1ncc(-c2ccc3c(c2)OC(c2cccc(OC(C)C)c2)n2c-3cc3cc(-c4cnc([C@@H]5CCCN5C(=O)[C@@H](NC(=O)OC)C(C)C)[nH]4)ccc32)[nH]1)C(C)C (mixture of isomers) | 0.007 | – | 28 | 0.1 | 4.4 | 0.08 | – | –
